Source: ChEMBL document CHEMBL1201862, “PubChem BioAssay data set” (2004)
Activity calls are given as the source filed them.

How the values were obtained:
P388/ADR = assay: cells; type: functional; settings: Mus musculus
P388 = assay: cells; type: functional; settings: Mus musculus
SN12K1 = assay: cells; type: functional; settings: Homo sapiens
Large T antigen = Large T antigen (Simian virus 40, UniProt P03070); type: functional, Betapolyomavirus macacae;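 also: Confirmatory-stage PubChem screen for compounds that inhibit SV40 T antigen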
Sequence of Large T antigen (P03070 whole entry): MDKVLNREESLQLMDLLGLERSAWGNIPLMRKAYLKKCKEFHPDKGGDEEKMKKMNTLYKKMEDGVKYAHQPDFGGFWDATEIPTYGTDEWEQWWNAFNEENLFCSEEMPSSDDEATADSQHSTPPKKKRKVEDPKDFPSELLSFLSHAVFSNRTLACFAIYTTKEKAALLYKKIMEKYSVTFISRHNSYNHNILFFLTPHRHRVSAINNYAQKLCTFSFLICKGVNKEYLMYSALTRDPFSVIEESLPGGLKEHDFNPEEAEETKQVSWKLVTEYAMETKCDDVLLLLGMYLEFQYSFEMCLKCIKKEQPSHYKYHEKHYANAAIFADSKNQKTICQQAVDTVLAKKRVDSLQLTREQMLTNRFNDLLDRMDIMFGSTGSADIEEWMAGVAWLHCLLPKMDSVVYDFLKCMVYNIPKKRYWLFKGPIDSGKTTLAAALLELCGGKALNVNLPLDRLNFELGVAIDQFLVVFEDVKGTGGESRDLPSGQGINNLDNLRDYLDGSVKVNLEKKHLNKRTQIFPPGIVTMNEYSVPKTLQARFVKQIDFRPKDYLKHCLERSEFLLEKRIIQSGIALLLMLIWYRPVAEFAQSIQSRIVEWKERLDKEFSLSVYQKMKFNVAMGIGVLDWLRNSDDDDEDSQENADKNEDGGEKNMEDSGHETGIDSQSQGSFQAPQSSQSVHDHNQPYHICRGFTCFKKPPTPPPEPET

[1] = target: Induced myeloid leukemia cell differentiation protein Mcl-1 (Homo sapiens, UniProt Q07820); type: functional
Sequence of Induced myeloid leukemia cell differentiation protein Mcl-1 (Q07820 whole entry): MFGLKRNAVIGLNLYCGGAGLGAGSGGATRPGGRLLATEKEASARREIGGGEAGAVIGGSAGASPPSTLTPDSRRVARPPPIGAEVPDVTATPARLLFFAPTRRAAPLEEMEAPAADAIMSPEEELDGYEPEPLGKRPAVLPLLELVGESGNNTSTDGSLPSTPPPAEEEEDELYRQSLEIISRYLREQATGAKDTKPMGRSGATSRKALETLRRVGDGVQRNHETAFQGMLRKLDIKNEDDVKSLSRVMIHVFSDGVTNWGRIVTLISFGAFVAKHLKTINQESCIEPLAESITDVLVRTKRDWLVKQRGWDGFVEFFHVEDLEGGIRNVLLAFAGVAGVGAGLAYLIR

HEK293 = assay: inhibitors of LMP1-driven NF-kB reporter, dose response, cell-based, HEK293, luciferase, cherry-pick (AID 588343); type: functional; settings: Homo sapiens
[2] = HepG2 cell cytotoxicity, dose response, cytotoxicity control for Shn3 inhibitor project, CellTiter-Glo, cherry-picked (AID 624134); type: functional, cell-based
[3] = control 3'UTR Renilla luciferase suppression, dose response, counter-screen for Shn3 inhibitor project, cell-based, Clone20-Shn3RL, cherry-picked (AID 624133); type: functional
[4] = Shn3 3'UTR reporter inhibitors, dose response, cell-based, Clone20 osteoblasts, firefly luciferase, cherry-picked (AID 624132); type: functional;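 also: firefly luciferase luminescence from reporter carrying the Shn3 3'UTR in osteoblasts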
Protein skinhead-1 = target: T1, Protein skinhead-1 (Caenorhabditis elegans, UniProt P34707); type: functional
T1 sequence (P34707 whole entry): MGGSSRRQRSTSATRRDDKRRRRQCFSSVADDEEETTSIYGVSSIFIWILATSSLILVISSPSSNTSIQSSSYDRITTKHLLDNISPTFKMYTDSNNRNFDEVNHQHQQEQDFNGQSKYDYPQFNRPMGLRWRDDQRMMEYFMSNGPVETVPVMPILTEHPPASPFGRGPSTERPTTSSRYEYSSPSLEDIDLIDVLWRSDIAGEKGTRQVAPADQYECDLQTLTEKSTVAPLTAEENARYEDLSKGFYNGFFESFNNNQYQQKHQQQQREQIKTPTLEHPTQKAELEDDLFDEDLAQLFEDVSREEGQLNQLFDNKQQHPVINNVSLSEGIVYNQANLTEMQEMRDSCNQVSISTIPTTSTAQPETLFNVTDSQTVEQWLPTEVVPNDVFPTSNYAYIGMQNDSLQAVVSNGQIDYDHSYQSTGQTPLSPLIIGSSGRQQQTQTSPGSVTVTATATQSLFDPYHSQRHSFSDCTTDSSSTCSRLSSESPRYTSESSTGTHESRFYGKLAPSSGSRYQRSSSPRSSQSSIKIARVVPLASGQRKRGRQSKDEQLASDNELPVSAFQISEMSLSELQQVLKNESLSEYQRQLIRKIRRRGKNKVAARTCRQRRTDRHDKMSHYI

cells [5] = type: functional, cell-based
cells [6] = type: functional, cell-based; remark: listed apart in the source
[7] = inhibitors of intracellular T. cruzi replication, confirmation, NIH3T3 host cells, beta-gal luminescence (AID 2044); type: functional, cell-based;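 also: intracellular parasites grown in NIH/3T3 mouse fibroblasts as host cells; luminescent beta-galactosidase reporter signal from transgenic T. cruzi replicating inside host cells; inhibitors lower the luminescence signal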
[8] = cytotoxicity toward NIH3T3 fibroblasts, dose response, counter-screen, cell-based, ATP luminescence, mouse fibroblasts (AID 2010); type: functional;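 also: cells exposed to compound for about 90 hours before reading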
[9] = target: T2, Heat shock factor protein 1 (Mus musculus, UniProt P38532); assay: HSF1 potentiators in luciferase reporter cells, confirmation, cell-based, NIH3T3, luminescence, dose retest (AID 435004); type: functional;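 also: stress induced by proteasome inhibitor MG132 added 30 min after compound; luciferase reporter driven by HSF1 response element in NIH3T3 cells; actives raise luminescence as potentiators of the MG132 stress response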
T2 sequence (P38532 whole entry): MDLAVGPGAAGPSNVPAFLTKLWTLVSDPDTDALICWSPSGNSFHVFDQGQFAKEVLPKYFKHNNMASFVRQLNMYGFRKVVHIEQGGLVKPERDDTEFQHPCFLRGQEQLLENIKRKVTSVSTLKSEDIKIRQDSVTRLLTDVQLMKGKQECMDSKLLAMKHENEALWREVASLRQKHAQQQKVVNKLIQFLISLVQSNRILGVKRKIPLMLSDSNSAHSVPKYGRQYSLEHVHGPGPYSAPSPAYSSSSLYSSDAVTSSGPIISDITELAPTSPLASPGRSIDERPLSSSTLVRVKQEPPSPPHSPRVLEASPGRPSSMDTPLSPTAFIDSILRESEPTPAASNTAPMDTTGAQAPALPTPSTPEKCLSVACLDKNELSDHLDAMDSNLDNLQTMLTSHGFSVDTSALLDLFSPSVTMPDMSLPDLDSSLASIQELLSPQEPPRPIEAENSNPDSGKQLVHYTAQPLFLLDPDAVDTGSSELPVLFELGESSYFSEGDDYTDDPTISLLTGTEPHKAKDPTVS

INS1 = assay: beta cell apoptosis inhibitors, cytokine rescue, dose response, luminescence, retest (AID 449756); type: functional, cell-based; settings: Rattus norvegicus;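 also: cell death triggered by IL-1 beta plus TNF-alpha plus IFN-gamma mixture; protective hits raise ATP signal compared with cytokine alone wells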
[10] = inhibitors of SNCA 5'UTR-driven reporter translation, confirmation, H4 neuroglioma cells, luminescence (AID 1988); type: functional, cell-based
[11] = Luminescence Cell-Based Dose Response HTS to Identify Inhibitors of 5'UTR Stem-Loop Driven Prion Protein mRNA Translation in H4 Neuroglioblastoma Cells. [Related pubchem assays: 1827 (Project Summary), 1813 (Primary HTS)]; type: functional
[12] = inhibitors of firefly luciferase expression or activity, dose response, H4 neuroglioma cells, luminescence (AID 1990); type: functional, cell-based
[13] = microbe, parasite or virus in culture; type: functional; settings: Mycobacterium tuberculosis
Streptokinase A = target: T3, Streptokinase A (Streptococcus pyogenes serotype M1, UniProt P10520); assay: S. pyogenes streptokinase expression inhibitors, potency, dose response, plasminogen activation absorbance, OD405 (AID 1914); type: functional, Streptococcus pyogenes M1 GAS;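 also: secreted streptokinase activity via plasminogen activation per viability signal from cell pellet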
T3 sequence (P10520 whole entry): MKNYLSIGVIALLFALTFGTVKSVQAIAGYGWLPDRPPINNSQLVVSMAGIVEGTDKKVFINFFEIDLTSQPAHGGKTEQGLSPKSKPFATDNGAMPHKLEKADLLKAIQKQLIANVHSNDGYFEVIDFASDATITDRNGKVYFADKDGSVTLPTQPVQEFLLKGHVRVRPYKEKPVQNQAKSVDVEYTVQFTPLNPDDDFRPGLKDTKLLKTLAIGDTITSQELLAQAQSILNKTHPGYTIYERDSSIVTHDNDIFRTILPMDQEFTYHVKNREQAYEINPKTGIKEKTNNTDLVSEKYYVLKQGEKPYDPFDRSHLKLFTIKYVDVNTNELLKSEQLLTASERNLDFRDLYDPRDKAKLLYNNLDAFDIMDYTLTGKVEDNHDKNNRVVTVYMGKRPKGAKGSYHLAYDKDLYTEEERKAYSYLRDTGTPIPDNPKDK

Fatty acid synthase [14] = target: T4, Fatty acid synthase (Homo sapiens, UniProt P49327); assay: FAS thioesterase domain inhibitors, dose response, biochemical, kinetic fluorescence intensity (AID 624326); type: functional;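 also: rate of fluorescence rise from hydrolysis of a fluorogenic O-methyl fluorescein ester substrate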
T4 sequence (P49327 whole entry, the tested form may be a part): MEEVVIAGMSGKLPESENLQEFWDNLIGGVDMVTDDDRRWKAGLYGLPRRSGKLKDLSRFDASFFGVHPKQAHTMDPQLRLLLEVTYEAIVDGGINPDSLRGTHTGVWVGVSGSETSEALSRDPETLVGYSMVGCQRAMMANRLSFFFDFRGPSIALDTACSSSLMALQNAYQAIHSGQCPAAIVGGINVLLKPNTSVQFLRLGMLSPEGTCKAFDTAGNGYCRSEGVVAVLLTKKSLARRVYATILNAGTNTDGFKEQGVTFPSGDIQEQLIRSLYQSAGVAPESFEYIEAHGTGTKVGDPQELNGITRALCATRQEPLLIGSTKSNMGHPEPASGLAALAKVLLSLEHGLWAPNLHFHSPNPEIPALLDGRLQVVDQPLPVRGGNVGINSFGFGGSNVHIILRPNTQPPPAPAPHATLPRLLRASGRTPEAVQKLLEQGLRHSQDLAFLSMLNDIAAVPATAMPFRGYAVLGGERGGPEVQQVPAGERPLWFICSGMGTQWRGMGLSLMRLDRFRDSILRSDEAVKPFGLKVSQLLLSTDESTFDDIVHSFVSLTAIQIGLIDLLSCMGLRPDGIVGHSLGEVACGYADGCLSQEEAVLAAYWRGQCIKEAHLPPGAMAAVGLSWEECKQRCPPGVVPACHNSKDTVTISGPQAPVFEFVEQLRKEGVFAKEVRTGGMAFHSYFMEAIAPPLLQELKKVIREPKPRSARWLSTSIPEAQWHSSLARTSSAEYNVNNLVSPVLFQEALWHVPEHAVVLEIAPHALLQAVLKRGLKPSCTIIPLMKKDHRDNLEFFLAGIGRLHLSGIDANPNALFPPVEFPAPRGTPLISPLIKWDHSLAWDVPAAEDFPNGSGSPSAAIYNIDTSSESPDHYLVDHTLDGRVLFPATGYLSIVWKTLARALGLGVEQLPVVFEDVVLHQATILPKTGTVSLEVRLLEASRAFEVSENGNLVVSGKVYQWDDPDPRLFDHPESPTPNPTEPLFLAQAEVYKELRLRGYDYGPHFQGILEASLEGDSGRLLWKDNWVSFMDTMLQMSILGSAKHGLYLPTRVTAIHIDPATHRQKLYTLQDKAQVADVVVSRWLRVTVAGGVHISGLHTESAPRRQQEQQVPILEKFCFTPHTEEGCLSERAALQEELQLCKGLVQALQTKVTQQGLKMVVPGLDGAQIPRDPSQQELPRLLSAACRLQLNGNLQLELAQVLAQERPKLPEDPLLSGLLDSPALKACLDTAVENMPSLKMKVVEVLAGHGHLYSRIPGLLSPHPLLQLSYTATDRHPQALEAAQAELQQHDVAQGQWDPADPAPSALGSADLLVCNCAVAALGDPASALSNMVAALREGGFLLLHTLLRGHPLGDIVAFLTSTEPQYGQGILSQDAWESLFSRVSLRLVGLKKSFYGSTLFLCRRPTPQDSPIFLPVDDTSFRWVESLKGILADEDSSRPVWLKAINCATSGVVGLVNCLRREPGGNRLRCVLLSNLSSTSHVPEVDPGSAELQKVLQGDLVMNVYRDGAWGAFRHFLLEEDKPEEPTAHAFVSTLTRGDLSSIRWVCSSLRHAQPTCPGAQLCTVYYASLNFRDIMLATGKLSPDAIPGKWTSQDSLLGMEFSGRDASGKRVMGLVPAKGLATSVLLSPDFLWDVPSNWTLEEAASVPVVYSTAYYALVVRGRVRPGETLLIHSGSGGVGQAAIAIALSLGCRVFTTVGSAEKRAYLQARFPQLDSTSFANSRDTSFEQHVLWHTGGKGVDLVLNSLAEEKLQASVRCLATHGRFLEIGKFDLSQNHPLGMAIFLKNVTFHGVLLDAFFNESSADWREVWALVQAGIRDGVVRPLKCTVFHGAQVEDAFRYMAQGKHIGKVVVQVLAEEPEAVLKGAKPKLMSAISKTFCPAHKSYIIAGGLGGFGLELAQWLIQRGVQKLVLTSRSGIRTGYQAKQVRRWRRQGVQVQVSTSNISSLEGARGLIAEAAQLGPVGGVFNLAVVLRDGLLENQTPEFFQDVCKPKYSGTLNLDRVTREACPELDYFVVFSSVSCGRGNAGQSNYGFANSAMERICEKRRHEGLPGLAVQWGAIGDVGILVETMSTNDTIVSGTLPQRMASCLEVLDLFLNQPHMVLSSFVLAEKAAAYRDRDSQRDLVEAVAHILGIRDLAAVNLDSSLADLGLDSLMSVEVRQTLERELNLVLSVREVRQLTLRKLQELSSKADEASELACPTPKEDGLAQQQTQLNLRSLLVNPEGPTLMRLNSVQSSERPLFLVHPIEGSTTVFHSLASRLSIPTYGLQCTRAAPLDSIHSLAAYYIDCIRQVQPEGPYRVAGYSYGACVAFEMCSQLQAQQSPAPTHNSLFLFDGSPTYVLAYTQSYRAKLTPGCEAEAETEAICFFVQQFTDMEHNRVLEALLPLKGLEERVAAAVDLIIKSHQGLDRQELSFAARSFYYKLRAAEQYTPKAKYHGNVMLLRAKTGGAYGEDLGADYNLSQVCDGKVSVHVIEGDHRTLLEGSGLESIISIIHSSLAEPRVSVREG

[15] = Luminescence Cell-Based Dose Retest to Confirm Inhibitors of Cancer Stem Cells. [Related pubchem assays (depositor defined):AID2717, AID2721]; type: functional; settings: Homo sapiens
Fatty acid synthase [16] = target: T4, Fatty acid synthase; assay: FAS thioesterase domain inhibitors, dose response, biochemical, endpoint fluorescence intensity, uHTS hits (AID 624327); type: functional;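 also: fluorescence from hydrolysis of an O-methyl fluorescein acyl ester substrate by the enzyme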
[17] = test system: Streptococcus sp. 'group A'; assay: growth inhibition of control SK(-) GAS strain, dose response, counter-screen for streptokinase expression inhibitor project, luminescence, kanamycin, BacTiterGlo, confirmation (AID 1900); type: functional, organism-based
Streptococcus = assay: Group A Streptococcus viability loss, dose response, counter-screen for streptokinase expression inhibitor project, luminescence, BacTiterGlo (AID 1915); type: functional, organism-based;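 also: potency for reduction of bacterial viability or growth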

C=C1C(=O)OC2CC(C)C3C4OC4C(O)C3(C)C(O)C12 (stereo not drawn)
GI50 (P388/ADR): 8.85 µM (inactive)
GI50 (P388): 8.02 µM (inactive)
GI50 (SN12K1): 24.8 µM (inactive)

COc1cc(/C=N/NC(=O)c2nnn(-c3nonc3N)c2-c2cccs2)ccc1O
IC50 (Large T antigen): 19.4 µM (active)

Oc1ccc(/C=N/Nc2nc(-c3cccnc3)nc3ccccc23)c(O)c1
IC50 [1]: 52.8 µM (not active)

Cc1ccc(C(=O)Nc2sc(Cc3ccc4c(c3)OCO4)c(C)c2C(N)=O)cc1
AC50 (HEK293): 130 µM (active)

CCC/C=C/C=C\C(=O)O[C@@H]1[C@@H](C)[C@]2(O)[C@@H]3C=C(C)C(=O)[C@H]3CC(COC(C)=O)=C[C@H]2[C@@H]2C(C)(C)[C@]12OC(C)=O
GI50 (P388/ADR): 1.79 µM (inactive)
GI50 (P388): 1.12 µM (inactive)
GI50 (SN12K1): 1.98 µM (inactive)

O=C(O)c1cc(N/N=C/c2cccc3ccccc23)ccc1Cl
IC50 (Large T antigen): > 100 µM (active)

O=C(Nc1ccccc1Cl)c1cnccn1
IC50 [1]: 8.55 µM (not active)

CN1CCN(S(=O)(=O)c2ccc(Sc3nnnn3-c3ccccc3)c([N+](=O)[O-])c2)CC1
AC50 [2]: > 70 µM (inactive)
AC50 [3]: 7.28 µM (active)
AC50 [4]: 3.9 µM (active)

CC(C)C1C(=O)N(Cc2cn(CCC3OCCO3)nn2)CCS(=O)(=O)N1Cc1ccc(-c2ccc(Cl)c(Cl)c2)cc1 (stereo not drawn)
AC50 [2]: > 70 µM (inactive)
AC50 [3]: 3.36 µM (active)
AC50 [4]: 1.28 µM (active)

CCCn1cnc2cc(NCc3cccc(OC)c3O)ccc21
IC50 (Large T antigen): 22.1 µM (active)
IC50 (Protein skinhead-1): > 100 µM (inactive)

O=S(=O)(c1ccc(C(F)(F)F)cc1)N1CCC(c2nc(O)c3nnn(Cc4ccc(F)cc4)c3n2)CC1
EC50 (cells [5]): > 350 µM (not active)
EC50 (cells [6]): > 350 µM (not active)

Oc1ccc(N2CCN(C(c3ccccn3)c3nnnn3C3CCCC3)CC2)cc1 (stereo not drawn)
IC50 (Large T antigen): 6.25 µM (active)

C=C(NC(=O)C(=C)NC(=O)c1csc(C2=NC3c4csc(n4)C4NC(=O)c5csc(n5)C(C(C)(O)C(C)O)NC(=O)C5CSC(=N5)/C(=C/C)NC(=O)C(C(C)O)NC(=O)c5csc(n5)C3(CC2)NC(=O)C(C)NC(=O)C(=C)NC(=O)C(C)NC(=O)C(C(C)CC)NC2C=Cc3c(C(C)O)cc(nc3C2O)C(=O)OC4C)n1)C(N)=O (stereo not drawn)
GI50 (P388/ADR): 1.27 µM (inactive)
GI50 (P388): 0.0407 µM (active)
GI50 (SN12K1): 0.968 µM (active)

COC(=O)C1=C(c2ccc(-c3ccccc3)c(F)c2)C[C@@H]2CC[C@H]1N2C(=O)NCC1CC1
AC50 [2]: > 70 µM (inactive)
AC50 [3]: 30.6 µM (active)
AC50 [4]: 4.32 µM (active)

COC(=O)C1=CC[C@@H]2C(C(=O)O)=CO[C@@H](OC3OC(CO)C(O)C(O)C3O)[C@H]12 (stereo partly drawn)
GI50 (P388/ADR): > 139 µM (inactive)
GI50 (P388): > 300 µM (inactive)
GI50 (SN12K1): > 300 µM (inactive)

COc1cc(/C=N/NC(=O)C2COc3ccccc3O2)ccc1O (stereo not drawn)
IC50 (Large T antigen): 8.24 µM (active)

COCCn1c(SCC(=O)NCc2ccco2)nnc1-c1c[nH]c2ccccc12
AC50 (HEK293): 283 µM (active)

Cc1ccc(C(CC(=O)O)C2CCOC(C)(C)C2)cc1 (stereo not drawn)
EC50 (cells [5]): > 350 µM (not active)
EC50 (cells [6]): > 350 µM (not active)

CCOC(=O)CNC(=O)N(CC)C12CC3CC(CC(C3)C1)C2
GI50 (P388/ADR): 131 µM (inactive)
GI50 (P388): 79.1 µM (inactive)
GI50 (SN12K1): 109 µM (inactive)

CSc1sc(=S)sc1SC
GI50 (P388/ADR): > 100 µM (inactive)
GI50 (P388): 60.8 µM (inactive)
GI50 (SN12K1): > 63.1 µM (inactive)

O=C1c2cccc3cc4ccccc4c(c23)C(=O)N1CCNCCN1C(=O)c2cccc3cc4ccccc4c(c23)C1=O
GI50 (P388/ADR): 0.16 µM (active)
GI50 (P388): 0.27 µM (active)
GI50 (SN12K1): 1.91 µM (inactive)

Cc1cccc(/C=N\NC(=O)c2ccc(Cl)cc2)c1O
EC50 [7]: 0.877 µM (active)
EC50 [8]: 9.57 µM (active)
EC50 [9]: 91 µM (active)
EC50 (cells [5]): > 350 µM (not active)
EC50 (cells [6]): 6.37 µM (active)
AC50 (INS1): 0.597 µM (active)

O=C(Nc1cnc2ccccn2c1=O)c1ccc(Cl)cc1Cl
EC50 [10]: 5.78 µM (active)
EC50 [11]: 5 µM (active)
EC50 [12]: 10.1 µM (inconclusive)
AC50 (HEK293): 2.55 µM (active)

c1cnc(N2CCN(c3ccc4ccccc4n3)CC2)nc1
EC50 [9]: > 260 µM (inactive)
EC50 (cells [5]): > 350 µM (not active)
EC50 (cells [6]): 11.9 µM (active)

N#Cc1c(-c2ccccc2)c(-c2ccccc2)nn(CC(=O)NNC(=O)Nc2ccc(Cl)c(Cl)c2)c1=O
CC50 [13]: 32.9 µM (active)
EC50 (Streptokinase A): 4 µM (active)
IC50 (Fatty acid synthase [14]): 8.07 µM (active)
AC50 [15]: 1.75 µM (active)
IC50 (Fatty acid synthase [16]): 7.91 µM (active)
EC50 [17]: 5.78 µM (active)
EC50 (Streptococcus): 103 µM (active)

O=S(=O)(c1cccc(C(F)(F)F)c1)N1CCC(c2nc(O)c3nnn(Cc4cccc(F)c4)c3n2)CC1
EC50 (cells [5]): > 350 µM (not active)
EC50 (cells [6]): > 350 µM (not active)

Cc1ccc(-n2ncc3c(N4CCN(c5ccc(F)cc5)CC4)ncnc32)c(C)c1
AC50 [2]: 2.94 µM (active)
AC50 [3]: 5.66 µM (active)
AC50 [4]: 3.24 µM (active)

CCC1OC(=O)C(C)C(OC2CC(C)(O)C(O)C(C)O2)C(C)C(O)C(C)(O)CC(C)C(=O)C(C)C(O)C1C (stereo not drawn)
GI50 (P388/ADR): > 300 µM (inactive)
GI50 (P388): > 300 µM (inactive)
GI50 (SN12K1): > 300 µM (inactive)

NC(=S)N/N=C/c1ccc(OC(=O)COc2ccccc2Cl)cn1
GI50 (P388/ADR): 4.97 µM (inactive)
GI50 (P388): 3.31 µM (inactive)
GI50 (SN12K1): 9.29 µM (inactive)

Cc1ccccc1/C=C/C(=O)c1ccc([N+](=O)[O-])o1
IC50 (Large T antigen): 83.2 µM (active)
EC50 (Streptokinase A): 50.9 µM (inconclusive)
AC50 (INS1): 3.15 µM (active)
EC50 [17]: 2.37 µM (active)
EC50 (Streptococcus): 10.6 µM (active)

O=Cc1cccn1-c1ccc(O)cc1
IC50 (Large T antigen): > 100 µM (active)

N#Cc1ccccc1S(=O)(=O)N1CCN(c2cnccn2)CC1
EC50 (cells [5]): > 350 µM (not active)
EC50 (cells [6]): > 350 µM (not active)
